According to publication PMC10373478, “Exploration and Exploitation Approaches Based on Generative Machine Learning to Identify Potent Small Molecule Inhibitors of α-Synuclein Secondary Nucleation” (Journal of Chemical Theory and Computation, 2023):

Target: T1, α-synuclein (αS) (Homo sapiens, UniProt P37840)
T1 construct: gene SNCA
Experiment: seeded aggregation kinetics (ThT fluorescence) at […] compound
Type: biochemical

SMILES: CN1C(C(=O)Nc2ccccn2)=C(O)c2sc(Cl)cc2S1(=O)=O [lornoxicam]
- seeded aggregation kinetics (ThT fluorescence) at 25 and 50 μM compound: The potency of lornoxicam was mild in comparison to hits found previously, but it was nonetheless observable
